Laboratory results published in US6602856B1, “Antagonists of alpha-melanocyte stimulating hormone and methods based thereon” (priority 1995, dated 2003).
Non-standard residues stand in square brackets, D forms with d. No end group written: not given here. Nle = CCCC[C@H](N)C(=O)O

Tests used:
[1] = system: α-MSH mediated cAMP second messenger stimulation; assay: α-MSH mediated intracellular cAMP stimulation in Xenopus melanophores; type: cell-based, Xenopus laevis; conditions: peptide at 40 μM; α-MSH 10 nM
Protocol: (§1) Oxytocin antagonist GVT ([d(CH2)5, Tyr (Me)^2, Orn^8]-Vasotocin; from Peninsula), at 20 μM, is used as a control to block responses evoked by 8 Nm AVT. Intracellular CAMP measurements were taken from confluent Xenopus melanophores grown in 24-well tissue culture plates (Falcon). Each bar represents the mean and SSD of four independent measurements. *(T-test; P<0.001) for all groups except those bearing asterisks.
(§2) Melanophores were plated confluently into 24-well tissue culture (Falcon) plates two days before the assay. Immediately prior to an assay, cells were washed with 70% L-15 medium (Sigma) containing 0.05% bovine serum albumin and then treated with 1 nm melatonin in the same medium. Then, cells were washed for 5 min in 70% L-15+0.05% bovine serum albumin+0.5 mm 3-isobutyl-1-methylxanthine (Aldrich)+1 nm melatonin, followed by 30 min of treatment with the test drug in the same media. After the drug treatment, cells were washed twice with 70% phosphate-buffered saline.
(§3) Oxytocin antagonist GVT ([d(CH2)5, Tyr (Me)^2, Orn^8]-Vasotocin; from Peninsula), at 20 μM, is used as a control to block responses evoked by 8 nM AVT.

[2] = system: cAMP stimulation evoked by AVT; assay: AVT evoked intracellular cAMP stimulation in Xenopus melanophores; type: cell-based, Xenopus laevis; conditions: AVT 8 nM
Protocol: as §1, §2, §3

[3] = target: T1, endogenous amphibian MSH-receptors (Xenopus laevis, UniProt A0A1L8GF34); type: cell-based; conditions: against 15 nM α-MSH; melanophores pretreated with 1 nM melatonin; mean±SE
T1 sequence (A0A1L8GF34 1-317): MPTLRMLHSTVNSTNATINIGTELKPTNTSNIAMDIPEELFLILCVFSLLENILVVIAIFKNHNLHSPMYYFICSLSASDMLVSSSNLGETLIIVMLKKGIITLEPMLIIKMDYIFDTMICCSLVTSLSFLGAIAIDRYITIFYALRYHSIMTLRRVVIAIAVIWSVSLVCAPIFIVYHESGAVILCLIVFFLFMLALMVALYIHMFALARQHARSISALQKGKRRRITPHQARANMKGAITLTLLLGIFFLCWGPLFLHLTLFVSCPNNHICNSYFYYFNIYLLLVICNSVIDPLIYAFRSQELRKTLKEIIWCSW
Protocol: Melanin dispersion responses were quantitated by measuring transmittance through a monolayer of cultured melanophores pretreated with 1 nM melatonin (Potenza, et. al., 1992, Anal Biochem. 206, 315-22) and curve fit with a logistic equation (De Lean et al., 1978, Am J. Physiol. 235, E97-E102).
Broken lines indicate 99% confidence level.
(§4) Each point represents the mean and SSD of four independent transmittance measurements. Ti=initial transmittance (2 min.). Tf=final transmittance (60 min.).
(§5) For dose-response studies all tripeptides were synthesized on Rink Amide MBHA resin 0.25 mmol scale using standard Fmoc chemistry. After synthesis, peptides were purified suing HPLC and reverse-phase chromatography on a C18 column. The dose-response curves were obtained by microtiter plate assays (Potenza et al, 1992, Pigment Cell Res. 5, 372-378). Melanophore cells (18,000/well) were plated on 96-well tissue culture plates (Falcon).

[4] = system: vasoactive intestinal peptide (VIP) activated pigment dispersion in Xenopus melanophores; conditions: read-out: EC50 (pigment dispersion)
Protocol: as §4, §5
(§6) The 221,184 component library was organized as 96 sub-libraries with 2,304 different peptide combinations per pool, each defined by the chemical structure of the amino terminal position.

[5] = system: [Arg^8]-vasotocin (AVT) activated pigment dispersion in Xenopus melanophores; conditions: read-out: EC50 (pigment dispersion)
Protocol: as §4, §5, §6

Substance | IC50 (μM) [3] | other results
D-Trp-Arg-Nle-NH2 [A2] |  | block of α-MSH mediated cAMP stimulation [1]: blocks; block of cAMP stimulation evoked by AVT ([2]; peptide at 40 μM): does not block
D-Trp-Arg-εAhx-NH2 [A12] | Inactive | 
[d(CH2)5, Tyr (Me)^2, Orn^8]-Vasotocin [GVT, reference compound] |  | block of responses evoked by AVT (cAMP) ([2]; antagonist at 20 μM, control): block
Vasoactive Intestinal Peptide [VIP] |  | EC50 [4]: ~1 nM
[dW]-Asp-[Nle]-NH2 [B8] | Inactive | 
D-Trp-Arg-βAla-NH2 [A14] | Inactive | 
D-Trp-Arg-Ala-NH2 [A13] | Inactive | 
D-Trp-Arg-γAbu-NH2 [A11] | Inactive | 
[Arg^8]-vasotocin [AVT] |  | EC50 [5]: ~2 nM
